Source: patent US8071581B2, “Triazolopyridazine protein kinase modulators” (SGX Pharmaceuticals, Inc., priority 2006, dated 2011)

How the values were obtained:
GTL16 = GTL16 cell assay (EC50); assay type: cell-based; details: Homo sapiens, GTL 16
Description: Compounds were tested in the following assays in duplicate. 96-well XTT assay: Cells were grown in growth media containing various concentrations of compounds (duplicates) on a 96-well flat bottom plate for 72 hours at 37° C. in 5% CO2. The starting cell number was 5000 cells per well and volume was 120 μl. At the end of the 72-hour incubation, 40 μl of XTT labeling mixture (50:1 solution of sodium 3′-[1-(phenylaminocarbonyl)-3,4-tetrazolium]-bis(4-methoxy-6-nitro) benzene sulfonic acid hydrate and Electron-coupling reagent: PMS (N-methyl dibenzopyrazine methyl sulfate) were added to each well of the plate. After an additional 2-6 hours […] with a spectrophotometer.

[1] = biological target: MET kinase (c-MET), kinase domain of human Met (Homo sapiens, UniProt P08581); test: MET luminescence-based enzyme assay (Kinase-Glo)
Sequence of MET kinase (c-MET), kinase domain of human Met (P08581 1078-1345 limits assumed): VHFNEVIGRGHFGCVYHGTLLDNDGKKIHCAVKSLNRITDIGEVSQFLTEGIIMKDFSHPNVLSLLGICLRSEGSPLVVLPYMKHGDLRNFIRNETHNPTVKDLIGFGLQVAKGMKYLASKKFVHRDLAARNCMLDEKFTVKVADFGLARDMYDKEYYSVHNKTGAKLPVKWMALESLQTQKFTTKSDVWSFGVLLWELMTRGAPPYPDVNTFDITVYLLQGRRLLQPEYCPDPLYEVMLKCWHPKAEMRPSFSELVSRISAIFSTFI

EC50 (GTL16; Table 1) | IC50 [1] | EC50 (GTL16; Table 2) | Compound
– | < 100 nM | 1000 to 10000 nM | Cc1ccc2nnc(Cc3ccc4ncc(-c5ccc[nH]5)cc4c3)n2n1 [compound 138]
– | < 100 nM | < 100 nM | Cn1cc(-c2cnc3ccc(Cc4nnc5cccnn45)cc3c2)cn1 [compound 139]
– | < 100 nM | < 100 nM | COc1ccc2nnc(Cc3ccc4ncc(-c5cnn(C)c5)cc4c3)n2n1 [compound 140, 6-(6-Methoxy-[1,2,4]triazolo[4,3-b]pyridazin-3-ylmethyl)-3-(1-methyl-1H-pyrazol-4-yl)-quinoline]
– | < 100 nM | < 100 nM | Cn1cc(-c2cnc3ccc(Cc4nnc5ccc(-c6cnn(C)c6)nn45)cc3c2)cn1 [compound 141]
– | 100 to 1000 nM | 100 to 1000 nM | Cc1ccc2nnc(Cc3ccc4ncc(-c5cnc[nH]5)cc4c3)n2n1 [compound 142, 3-(1H-Imidazol-4-yl)-6-(6-methyl-[1,2,4]triazolo[4,3-b]pyridazin-3-ylmethyl)-quinoline]
– | < 100 nM | < 100 nM | CCC(=O)Cn1cc(-c2cnc3ccc(Cc4nnc5ccc(C)nn45)cc3c2)cn1 [compound 143]
– | < 100 nM | 100 to 1000 nM | Cc1ccc2nnc(Cc3ccc4ncc(-c5cnn(CCO)c5)cc4c3)n2n1 [compound 144, 2-{4-[6-(6-Methyl-[1,2,4]triazolo[4,3-b]pyridazin-3-ylmethyl)-quinolin-3-yl]pyrazol-1-yl}-ethanol]
– | < 100 nM | < 100 nM | Cc1ccc2nnc(Cc3c(F)cc4ncc(-c5cnn(C)c5)cc4c3F)n2n1 [compound 145, 5,7-Difluoro-3-(1-methyl-1H-pyrazol-4-yl)-6-(6-methyl-[1,2,4]triazolo[4,3b]pyridazin-3-ylmethyl)-quinoline]
– | < 100 nM | < 100 nM | Cc1ccc2nnc(Cc3c(F)cc4ncc(-c5cnn(CCN6CCOCC6)c5)cc4c3F)n2n1 [compound 146]
– | < 100 nM | < 100 nM | COCCn1cc(-c2cnc3ccc(Cc4nnc5ccc(C)nn45)cc3c2)cn1 [compound 147]
– | < 100 nM | < 100 nM | Cc1ccc2nnc(Cc3ccc4ncc(-c5cnn(CCC#N)c5)cc4c3)n2n1 [compound 148]
– | < 100 nM | 1000 to 10000 nM | Cc1ccc2nnc(Cc3ccc4ncc(-c5cnn(CC(N)=O)c5)cc4c3)n2n1 [compound 149, 2-{4-[6-(6-Methyl-[1,2,4]triazolo[4,3-b]pyridazin-3-ylmethyl)-quinolin-3-yl]-pyrazol-1-yl}-acetamide]
– | < 100 nM | 1000 to 10000 nM | Cc1ccc2nnc(Cc3c(F)cc4ncc(-c5cnn(CC(=O)O)c5)cc4c3F)n2n1 [compound 151]
– | < 100 nM | 100 to 1000 nM | Cc1ccc2nnc(Cc3ccc4ncc(-c5cnn(C6CNC6)c5)cc4c3)n2n1 [compound 153]
– | < 100 nM | 100 to 1000 nM | Cc1ccc2nnc(Cc3ccc4ncc(-c5cnn(CCC(N)=O)c5)cc4c3)n2n1 [compound 154]
– | < 100 nM | 100 to 1000 nM | Cc1ccc2nnc(Cc3ccc4ncc(-c5cnn(CC6CNC6)c5)cc4c3)n2n1 [compound 155, 3-(1-Azetidin-3-ylmethyl-1H-pyrazol-4-yl)-6-(6-methyl-[1,2,4]triazolo[4,3-b]pyridazin-3-ylmethyl)-quinoline]
– | < 100 nM | < 100 nM | CCc1ccc2nnc(Cc3ccc4ncc(-c5cnn(C)c5)cc4c3)n2n1 [compound 157, 6-(6-Ethyl-[1,2,4]triazolo[4,3-b]pyridazin-3-ylmethyl)-3-(1-methyl-1H-pyrazol-4-yl)-quinoline]
– | < 100 nM | < 100 nM | Cc1ccc2nnc(Cc3cc4cc(-c5cnn(C)c5)cnc4cc3F)n2n1 [compound 158]

The remaining lines, values behind:

Compound | EC50 (GTL16; Table 1) | IC50 [1] | EC50 (GTL16; Table 2)
CNC(=O)c1ccc(-c2ccc3nnc(C(C)c4ccc5ncccc5c4)n3n2)cc1F (stereo not shown) [compound 80] | < 100 nM | < 100 nM | –
CC(c1ccc2ncsc2c1)c1nnc2ccc(-c3cccc(C#N)c3)nn12 (stereo not shown) [compound 81] | < 100 nM | < 100 nM | –
CNC(=O)c1ccc(-c2ccc3nnc(C(C)c4ccc5ncsc5c4)n3n2)cc1F (stereo not shown) [compound 82] | < 100 nM | < 100 nM | –
Cc1cc2ncccc2cc1Cc1nnc2ccc(-c3cnn(C)c3)nn12 [compound 84] | < 100 nM | < 100 nM | –
Cc1cc2ncccc2cc1Cc1nnc2ccc(-c3cccc(C#N)c3)nn12 [compound 85] | < 100 nM | < 100 nM | –
Cn1cc(-c2ccc3nnc(Cc4c(F)cc5ncccc5c4F)n3n2)cn1 [compound 87] | < 100 nM | < 100 nM | –
N#Cc1cccc(-c2ccc3nnc(Cc4c(F)cc5ncccc5c4F)n3n2)c1 [compound 88] | < 100 nM | < 100 nM | –
CNC(=O)c1ccc(-c2ccc3nnc(Cc4c(F)cc5ncccc5c4F)n3n2)cc1F [compound 89] | < 100 nM | < 100 nM | –
Cn1cc(-c2ccc3nnc(Cc4cc5cccnc5cc4F)n3n2)cn1 [compound 90] | < 100 nM | < 100 nM | –
CCNC(=O)c1ccc(-c2ccc3nnc(Cc4ccc5ncsc5c4)n3n2)cc1F [compound 94] | 100 to 1000 nM | 100 to 1000 nM | –
CC(C)NC(=O)c1ccc(-c2ccc3nnc(Cc4ccc5ncsc5c4)n3n2)cc1F [compound 95] | 100 to 1000 nM | < 100 nM | –
Cn1cc(-c2ccc3nnc(Cc4ccc5ncsc5c4)n3n2)cn1 [compound 96] | < 100 nM | < 100 nM | –
N#Cc1cccc(-c2ccc3nnc(Cc4ccc5ncsc5c4)n3n2)c1 [compound 98] | 100 to 1000 nM | 100 to 1000 nM | –
CNC(=O)c1ccc(-c2ccc3nnc(Cc4ccc5ncsc5c4)n3n2)cc1F [compound 101] | 100 to 1000 nM | < 100 nM | –
CS(=O)(=O)c1cccc(-c2ccc3nnc(Cc4ccc5ncsc5c4)n3n2)c1 [compound 102] | 100 to 1000 nM | < 100 nM | –
C[C@@H](c1ccc2ncsc2c1)c1nnc2ccc(-c3cccc(C#N)c3)nn12 [compound 103, (S)-3-[3-(1-Benzothiazol-6-yl-ethyl)-[1,2,4]triazolo[4,3-b]pyridazin-6-yl]-benzonitrile] | < 100 nM | < 100 nM | –
C=Cc1ccc2nnc(Cc3ccc4ncccc4c3)n2n1 [compound 107] | 100 to 1000 nM | 100 to 1000 nM | –
c1cnc2ccc(Cc3nnc4ccc(C5CC5)nn34)cc2c1 [compound 109, 6-(6-Cyclopropyl-[1,2,4]triazolo[4,3-b]pyridazin-3-ylmethyl)-quinoline] | 100 to 1000 nM | 100 to 1000 nM | –

Compound | EC50 (GTL16; Table 1) | IC50 [1] | EC50 (GTL16; Table 2)
Fc1cc2ncccc2c(F)c1Cc1nnc2ccc(Cl)nn12 [compound 111, 6-(6-Chloro-[1,2,4]triazolo[4,3-b]pyridazin-3-ylmethyl)-5,7-difluoro-quinoline] | 100 to 1000 nM | 100 to 1000 nM | –
c1cnc2ccc(Cc3nnc4ccc(N5CCCCC5)nn34)cc2c1 [compound 112] | 100 to 1000 nM | 100 to 1000 nM | –
CN1CCN(c2ccc3nnc(Cc4ccc5ncccc5c4)n3n2)CC1 [compound 113] | 100 to 1000 nM | 100 to 1000 nM | –
Brc1cnc2ccc(Cc3nnc4nccnn34)cc2c1 [compound 117, 3-Bromo-6-[1,2,4]triazolo[4,3-b][1,2,4]triazin-3-ylmethyl-quinoline] | < 100 nM | < 100 nM | –
Cn1cc(-c2cnc3ccc(Cc4nnc5ccc(C(F)(F)F)nn45)cc3c2)cn1 [compound 123, 3-(1-Methyl-1H-pyrazol-4-yl)-6-(6-trifluoromethyl-[1,2,4]triazolo[4,3-b]pyridazin-3-ylmethyl)-quinoline] | – | < 100 nM | 100 to 1000 nM
Cc1ccc2nnc(Cc3ccc4ncc(-c5cn[nH]c5)cc4c3)n2n1 [compound 125, 6-(6-Methyl-[1,2,4]triazolo[4,3-b]pyridazin-3-ylmethyl)-3-(1H-pyrazol-4-yl)-quinoline] | – | < 100 nM | 100 to 1000 nM
Cc1ccc2nnc(Cc3ccc4ncc(-c5cnn(C6CCNCC6)c5)cc4c3)n2n1 [compound 126] | – | < 100 nM | < 100 nM
Cc1ccc2nnc(Cc3ccc4ncc(-c5cc(F)cc(F)c5)cc4c3)n2n1 [compound 128] | – | 100 to 1000 nM | 1000 to 10000 nM
Cc1ccc2nnc(Cc3ccc4ncc(-c5cncnc5)cc4c3)n2n1 [compound 129] | – | 100 to 1000 nM | 1000 to 10000 nM
Cc1ccc2nnc(Cc3ccc4ncc(-c5cccc(C#N)c5)cc4c3)n2n1 [compound 130] | – | < 100 nM | < 100 nM
Cc1ccc2nnc(Cc3ccc4ncc(-c5cccnc5)cc4c3)n2n1 [compound 131] | – | < 100 nM | < 100 nM
Cc1ccc2nnc(Cc3ccc4ncc(-n5ccnc5)cc4c3)n2n1 [compound 132, 3-Imidazol-1-yl-6-(6-methyl-[1,2,4]triazolo[4,3-b]pyridazin-3-ylmethyl)-quinoline] | – | 100 to 1000 nM | 100 to 1000 nM
Cc1ccc2nnc(Cc3ccc4ncc(-c5cnn(CCN6CCOCC6)c5)cc4c3)n2n1 [compound 133] | – | < 100 nM | < 100 nM
Cc1ccc2nnc(Cc3ccc4ncc(-c5cnn(CC(=O)O)c5)cc4c3)n2n1 [compound 134] | – | < 100 nM | 100 to 1000 nM
Cc1ccc2nnc(Cc3ccc4ncc(-c5cccc(C(=O)O)c5)cc4c3)n2n1 [compound 135] | – | 100 to 1000 nM | 1000 to 10000 nM
Cc1ccc2nnc(Cc3ccc4ncc(-c5ccc(C(=O)O)cc5)cc4c3)n2n1 [compound 136] | – | 100 to 1000 nM | 1000 to 10000 nM
Cc1ccc2nnc(Cc3ccc4ncc(-c5cc6ccccc6[nH]5)cc4c3)n2n1 [compound 137] | – | < 100 nM | 100 to 1000 nM
